# Patent publication US20100016208A1, “PHOTOACTIVATABLE ANTIMICROBIAL AGENTS” (priority 2005, published 2010)
# Tests used:
# [1] = biological target: β-lactamase from Enterobacter cloacae (Enterobacter cloacae, UniProt P05364); assay: Enzyme-mediated cleavage of the prodrug (fluorescence emission, photosensitizer release); format: biochemical
# Protocol: Enzyme-mediated cleavage of the prodrug The prodrug obtained was further studied for release of photosensitizer in presence of β-lactamase from Enterobacter cloacae. For the fluorescence emission study of the prodrug, the solvent employed was water, and the excitation wavelength 635 nm in the presence of beta-lactamase enzyme (from Enterobacter cloacae). Time-dependent fluorescence emission was also measured for photosensitizer release from the prodrug in the presence of enzyme. […] Thus, the prodrug was synthesized and characterized.
# [2] = Fluorescence emission spectra of prodrug vs. free photosensitizer (TBO); format: physicochemical; conditions: ethanol, 635 nm excitation
# Sequence of β-lactamase from Enterobacter cloacae (P05364 21-381): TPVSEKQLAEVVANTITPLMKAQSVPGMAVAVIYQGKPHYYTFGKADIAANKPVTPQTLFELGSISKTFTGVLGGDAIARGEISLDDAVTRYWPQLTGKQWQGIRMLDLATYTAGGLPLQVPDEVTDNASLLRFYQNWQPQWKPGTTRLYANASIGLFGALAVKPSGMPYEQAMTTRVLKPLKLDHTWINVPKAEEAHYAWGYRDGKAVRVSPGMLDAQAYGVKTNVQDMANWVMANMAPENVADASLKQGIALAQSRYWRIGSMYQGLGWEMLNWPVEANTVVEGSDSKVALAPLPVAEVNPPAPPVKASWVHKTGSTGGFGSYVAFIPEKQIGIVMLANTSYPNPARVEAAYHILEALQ
substance,measurement,setting,value
Cephalosporanic Acid-Toluidine BlueO Prodrug,enzyme specificity of photosensitizer release,[1]; beta-lactamase enzyme (from Enterobacter cloacae),lactamase-specific activity
same,increase in excited stated properties (fluorescence emission) on incubation with enzyme,"[1]; water, 635 nm excitation, within minutes of incubation of prodrug with enzyme",~5 fold
same,reduction in fluorescence emission maxima (quenching of the photosensitizer upon conjugation with the cephalosporin moiety),[2],~8 fold
